Laboratory results as given in patent US20150352075A1, “Treatment of Alzheimer's and Cognitive Impairment With Andrographolides” (INNOBIOSCIENCE, LLC, priority 2013, published 2015).

Legend:
[1] = system: APPswe/PS-1 double transgenic mice; assay: Thioflavine-S staining of amyloid plaques in brain of treated mice; assay type: in vivo
[2] = system: Wnt/β-catenin pathway in cultured rat hippocampal neurons; assay: Wnt/β-catenin pathway activation in cultured hippocampal neurons (western blot, immunofluorescence); assay type: cell-based
Method: (§1) Primary culture of rat hippocampal neurons. Rat hippocampal cultures were prepared as previously described (Arrazola et al, 2009). On day 3 of culture, hippocampal cells were treated with 2 mM 1-b-Darabinofuranosylcytosine (AraC) during 24 h to reduce the number of proliferating non-neuronal cells. […] PCR-ARRAY. RNA from hippocampal neurons was extracted using Trizol. Quantification and purity of RNA preparations were checked by absorbance using Nanodrop ND-2000. Only preparations with a 260/280 nm ratio ≧1.8, a 260/230 nm ratio ≧1.7 and no sign of RNA degradations, verified by agarose gel electrophoresis with Gel Red™ were used. Genomic DNA was degraded. Using RT2First-Strand cDNA Synthesis kit (SuperArray), 1 ng total RNA was reverse transcribed and then real-time PCR was performed by adding cDNA directly to PCR Master Mix, containing SYBR Green and ROX. The mixtures were then aliquoted into a 96-well PCR array plates, which profiles the expression of 84 Wnt target genes from rat. The PCR was run on ABI StepOnePlus, with 1 cycle of 10 min at 95° C. followed by 40 cycles of 15s at 95° C. and 1 min at 60° C. Cycle threshold (Ct) values were calculated for all the genes present on the array (Schmittgen & Livak, 2008). Treatment of neuronal cultures. Primary hippocampal cultures of neurons 14 DIV were washed twice in neurobasal medium and maintained for 1 hour. Next ANDRO (10 μM) and 6-BIO (10 μM) were added to different time periods.
Following a time-course treatment, neurons were washed with cold PBS and harvested in 600 μL of cold homogenization buffer (10 mM HEPES pH 7.9; 1.5 mM MgCl2; 10 mM KCl; 1 mM DTT). The cells were disrupted by 20 passed, back and forth, through a syringe of 1mL. Lysates were centrifuged for 6 minutes at 700 g at 4° C. and the supernatant was removed. The precipitate was washed in 100 μL of buffer (20 mM HEPES pH=7.9; 420 mM NaCl; 1.5 mM MgCl2; 0.2 mM EDTA; 1 mM DTT; 25% glicerol) and centrifuged again to generate nuclear fraction. Cytosolic fractions were generated from the supernatantat 100.000 g […] 4° C. Both buffers were supplemented with protease inhibitors and serine-phosphatase. Nuclear and cytosolic fractions were subsequently subjected to western blotting.
The samples were dissected on ice and immediately frozen in liquid nitrogen or processed has previously detailed (Inestrosa et al, 2011). Briefly, tissues were homogenized in RIPA buffer (10 mM Tris-Cl, pH 7.4, EDTA 5 mM, 1% NP-40, 1% sodium deoxycholate, and 1% SDS) supplemented with a protease inhibitor mixture (1 mM PMSF, 2 μg/mL aprotinin, 1 μg/mL pepstatin and 10 μg/mL benzamidine) and phosphatase inhibitors (25 mMNaF, 100 mM Na3VO4, 1 mM EDTA and 30 μM Na4P207) using a Potter homogenizator and then passed sequentially through different caliber syringes. Protein samples were centrifuged at 14000 rpm at 4° C. twice for 15 min. Protein concentration was determined using the BCA Protein Assay Kit (Pierce). Samples were resolved by […] 10% SDS-PAGE and transferred to a PVDF membrane. The reactions were followed by incubation with anti-mouse, anti-goat or anti-rabbit IgG peroxidase conjugated (Pierce, Rockford, Ill.) and developed using an ECL kit (Western Lightning Plus ECL, PerkinElmer).
Hippocampal neurons were seeded onto poly-L-lysine-coated cover slips in 24-well culture plates at a density of 5×10^4 cells per well, as described previously (Arrazola et al, 2009; Chacon et al, 2008). A mouse monoclonal anti-b-catenin was used. Cells were extensively washed with PBS and then incubated with Alexa 488-conjugated anti-mouse IgG for 1 h at room temperature. Cells were mounted in mounting medium and analyzed in a Carl-Zeiss Confocal Laser Microscope.

[3] = system: Wnt target genes in cultured hippocampal neurons; assay: PCR array of Wnt target genes in hippocampal neurons; assay type: cell-based, rat
Method: as §1, with “neurons.” for “neurons. Rat hippocampal cultures were prepared as previously described (Arrazola et al, 2009). On day 3 of culture, hippocampal cells were treated with 2 mM 1-b-Darabinofuranosylcytosine (AraC) during 24 h to reduce the number of proliferating non-neuronal cells.”, “Cycle threshold (Ct) values were calculated for all the genes present on the array (Schmittgen & Livak, 2008).” left out

[4] = young APPswe/PS-1 mice, vs controls
[5] = hippocampal neurons, ANDRO 10 μM
[6] = hippocampal neurons, different concentrations for 6 h

C=C1CC[C@@H]2C(C)(CO)C(O)CC[C@@]2(C)C1C/C=C1/C(=O)OCC1O (stereo in doubt) [ANDRO, 3-(2-(Decahydro-6-hydroxy-5-(hydroxymethyl)-5,8a-dimethyl-2-methylenenaphthyl)ethylidene)dihydro-4-hydroxyfuran-2(3H)-one]
plaque size distribution (cumulative frequency) ([1]; 7 month-old APPswe/PS-1 mice): shift in their distribution toward smaller plaque size | amyloid plaques stained with Th-S ([1]; 7 month-old APPswe/PS-1 mice, cortex and hippocampus, vs untreated): reduction of amyloid plaques stained with Th-S | amyloid deposit levels (amyloid burden area) ([1]; FIG. 3F mice (printed young; legend: old, 12 month-old), hippocampus or cortex): no change in amyloid deposit levels | most immature plaques (type 1) [1, 4]: increase significantly | type 2a and 2c amyloid plaques in total brain [1, 4]: no significant differences | type 2b amyloid plaques in brain [1, 4]: significantly decreased | β-catenin levels by immunofluorescence ([2]; 5 μM for 6 h, neurons at 14 DIV): increased β-catenin levels | time of maximum increase of the inhibited form of GSK-3β [2, 5]: 6 h | time of peak accumulation of cytoplasmic and nuclear β-catenin [2, 5]: 9 h | accumulation of β-catenin [2, 6]: accumulation of β-catenin in a concentration-dependent manner | active form of GSK-3β (phospho-Tyr-216) [2, 6]: decrease in the active form (phosphor-Tyr-216) | inhibited form of GSK-3β (phospho-Ser-9) [2, 6]: increase in the inhibited form of the enzyme (phospho-Ser-9) | Cdh-1 gene expression [3]: differential expression induced by ANDRO | number of Wnt target genes specifically modulated ([3]; 9 h, of the 86 genes analyzed): 3 genes | number of modulated Wnt target genes shared by both treatments ([3]; 9 h, of the 86 genes analyzed): 4 | Ets2 gene expression ([3]; after Bonferroni correction): down-regulation of Ets2 gene
